# How the values were obtained:
# [1] = system: Hek293 cell lines expressing the recombinant vector; assay: Forskolin activation of transfected Hek293 cells (cAMP); type: cell-based; details: Forskolin 10 mM, 1 mM and 0.1 mM
# Description: (§1) Ligand binding studies were performed two days after transfections, in three independent experiments. Transfected cells were incubated in duplicate with different concentrations (10^-6 to 10^-11M) of the human VIP, PACAP38 and secretin (SCT) peptides and ovine PACAP27 peptide for 30 minutes (Sigma-Aldrich, Spain). Homologous sea bream peptides are unavailable but their predicted amino acid sequences are 82%, 100%and 92% identical to human VIP, PACAP27 and PACAP38 respectively and important amino acids at N-terminus potential involved in receptor binding are totally conserved (unpublished data). […]
# (§2) The quantification of cAMP produced was determined by radioimmunoassay using the TRK432 kit (GE Healthcare, UK) following the manufacturer's instructions. […] The concentration of cAMP produced (pmol/well) was determined in duplicate for each sample and calculations performed based on a linear regression curve constructed using standard concentrations of labelled (^3H) cAMP. […] Data was analyzed by comparing the potency profile of each sbPAC1 receptor in the presence of different concentrations of test peptides and by comparing the potency profile of both receptors in the presence of identical peptide concentrations. […]
# [2] = system: Cos7 cell lines expressing the recombinant vector; assay: Forskolin activation of transfected Cos7 cells (cAMP); type: cell-based; details: Forskolin 10 mM, 1 mM and 0.1 mM
# Description: as §1, §2
# sbPAC1A = assay: cAMP production in Cos7 cells expressing sbPAC1A (RIA); type: cell-based, sea bream (Sparus auratus); details: for LOGEC50 for cAMP production: 10^-6 to 10^-11M peptide, cAMP by radioimmunoassay (TRK432), mean ± SEM of three independent experiments in duplicate, log value with negative sign
# Description: (§3) Specific primers for each sbPAC1 gene were designed to amplify the mature receptor sequence (Table 2) and were cloned into pcDNA3 vector (Invitrogen, UK) containing a signal peptide of CD33 and a T7-epitope tag (CD33-T7-pcDNA3, [66]). In order to facilitate cloning, restriction digestion sites for BglII and EcoRI enzymes were incorporated in the forward and reverse primers respectively. Template amplification was carried out using the thermocyle; 95°C for 2 minutes; 35 cycles of (95°C for 1 minute, 68°C for 1 minute and 70°C 2 minutes); 72°C for 10 minutes with a proof-reading Pfu DNA polymerase (Promega, Spain) in a 25 μl reaction volume containing 1 × PCR buffer (Promega, Spain), 1,5 mM MgCl2 (Promega, Spain), 0,2 mM dNTPs (Amersham), […] of each primer and 1,5 U Pfu DNA polymerase (3 U/μl)) and DNase Free water (Sigma-Aldrich, Spain). The amplified PCR products were cloned into pGEMT-easy vector (Promega, Spain), sequenced and subcloned into CD33-T7-pcDNA3 vector in frame with the T7-epitope tag. The recombinant constructs produced (CD33-T7-pcDNA3+sbPAC1A and CD33-T7-pcDNA3+sbPAC1B) were sequenced and used to transfect mammalian Cos7 and Hek293 cells lines. The CD86 (NM_175862) membrane protein of the immunoglobulin superfamily cloned in CD33-T7-pcDNA3 expression vector was used as positive control for cell transfection (de Vet et al., 2001).
# (§4) Mammalian Cos7 and Hek293 cell lines were transfected using the Effectene transfection kit (Qiagen, Germany) and the success of transfection was assessed by western blot and immunofluorescence assays using antisera raised against the T7-epitope tag protein [66]. One day prior to transfection, approximately 60,000 to 70,000 Cos7 and Hek293 cells were seeded and transfections carried out using approximately 0.4 μg of recombinant construct (pcDNA3+sbPAC1A or B) and cells were grown for 2 days at 37°C. The viability of transfected cells was determined by dye exclusion using Trypan blue (0,4% solution, Sigma) and the success of transfection calculated by fluorescent confocal microscopy using DAPI (4',6-Diamidino-2-phenylindole) and FITC (Fluorescein) staining for Cos7 cells and the FACS (Fluorescence Activated Cell Sorting) method for Hek293 cells. The percentage of cell transfection was estimated to be approximately 30% in both cell lines.
# Ligand binding studies were performed two days after transfections, in three independent experiments. Transfected cells were incubated in duplicate with different concentrations (10^-6 to 10^-11M) of the human VIP, PACAP38 and secretin (SCT) peptides and ovine PACAP27 peptide for 30 minutes (Sigma-Aldrich, Spain). Homologous sea bream peptides are unavailable but their predicted amino acid sequences are 82%, 100%and 92% identical to human VIP, PACAP27 and PACAP38 respectively and important amino acids at N-terminus potential involved in receptor binding are totally conserved (unpublished data). Prior to ligand-binding assays, Cos7 and Hek293 cells were washed 3 times with DMEM medium without fetal calf serum and incubated in a CO2 incubator with 1 mM of IBMX (3-Isobutyl-1-Methylxantine) for 30 minutes. Ligand-binding assays were performed by incubating the cells in fresh medium containing the peptides in the presence of 1 mM IBMX for 30 minutes at 37°C in the CO2 incubator. After incubation, cells were lysed and stored at -80°C until required. Mammalian Cos7 and Hek293 cells transfected with wild type pcDNA3 were used as negative controls which were incubated with the highest tested peptide concentration ([…]). Prior to assays the responsiveness of transfected Cos7 and Hek293 cells was tested by stimulating cAMP production using Forskolin ([…]; Sigma-Aldrich).
# The quantification of cAMP produced was determined by radioimmunoassay using the TRK432 kit (GE Healthcare, UK) following the manufacturer's instructions. Cos7 and Hek293 cells were lysed by sonication, centrifuged and the supernatant heat denatured for 10 minutes at 100°C. […]
# sbPAC1B = assay: cAMP production in Cos7 cells expressing sbPAC1B (RIA); type: cell-based, sea bream (Sparus auratus); details: for LOGEC50 for maximal cAMP production: 10^-6 to 10^-11M peptide, cAMP by radioimmunoassay (TRK432), mean ± SEM of three independent experiments in duplicate, log value with negative sign
# Description: as §3, §4
# Ligand binding studies were performed two days after transfections, in three independent experiments. Transfected cells were incubated in duplicate with different concentrations (10^-6 to 10^-11M) of the human VIP, PACAP38 and secretin (SCT) peptides and ovine PACAP27 peptide for 30 minutes (Sigma-Aldrich, Spain). […]
# The quantification of cAMP produced was determined by radioimmunoassay using the TRK432 kit (GE Healthcare, UK) following the manufacturer's instructions. […]
# pituitary cells = details: compared to GHRH and GnRH for PACAP38; ref [46],[51],[52]; cited from earlier work
# Source text: (§5) An intriguing aspect about the sbPAC1 genes is their divergent tissue distribution and this may be the basis of their specific physiological functions and persistence in the genome. Understanding the biological function of receptors is complex as it is not only the availability and concentration of receptors but also of ligands and accessory factors at a given site which will determine receptor preference/activity and ultimately biological function.
# [3] = system: endogenous receptors in Hek293; assay: Negative control: Hek293 cells transfected with pcDNA3 without insert; type: cell-based; details: maximum concentration of test peptide (10^-6 M)
# Source text: The sbPAC1A and sbPAC1B were successfully expressed in Cos7 and Hek293 cell lines as confirmed by immunofluorescence and Western blot analysis. Cos7 cell extracts subject to Western blot contained a specific immunoreactive fusion protein of approximately 52 kDa in transfected cells, which corresponds to the estimated molecular weight in silico of the fusion proteins, (T7PAC1A is 52.75 kDa and T7PAC1B is 52.32 kDa). […] For this reason only the results obtained with transfected Cos7 cells are presented.
# Ligand binding studies were performed two days after transfections, in three independent experiments. […]
# as §2
# PAC1 = details: human PAC1; ref [18],[19]; cited from earlier work
# Source text: In vertebrates, activation of PAC1/VPAC receptors occurs via three intracellular transduction mechanisms. These involve either cyclic AMP (cAMP) production, IP turnover via PLC or/and calcium mobilization as a consequence of the activation of a G-protein complex. In mammals, five PAC1 isoforms, which result from the insertion of one or two, 28 (hip or hop1 variant) or ...
# intestine = details: tilapia; ref [57]; cited from earlier work
# Source text: as §5
# [4] = system: gastric and pancreatic secretion; details: cod; ref [55],[56]; cited from earlier work
# Source text: as §5
# [5] = transfected Cos7 cells, 30 minutes, 37°C, 1 mM IBMX
molecule,measurement,setting,value
C=C[C@@]1(C)CC(=O)[C@]2(O)[C@@]3(C)[C@@H](O)CCC(C)(C)[C@@H]3[C@H](O)[C@H](OC(C)=O)[C@@]2(C)O1 [Forskolin],cAMP production with Forskolin,[1],maximal cAMP production
same,cAMP production with Forskolin,[2],maximal cAMP production
Pituitary Adenylate Cyclase-Activating Polypeptide [PACAP27],stimulation of sbPAC1A compared to sbPAC1B (LOGEC50 values for maximal cAMP production),"sbPAC1A; sbPAC1A vs sbPAC1B, P > 0.05",equally stimulated
Pituitary Adenylate Cyclase-Activating Polypeptide [PACAP38],LOGEC50 for maximal cAMP production,sbPAC1B; [5],-8.92 ± 0.24 M
same,effect on fish GH secretion by pituitary cells,pituitary cells,more potent stimulatory effect on fish GH secretion by pituitary cells when compared to GHRH and GnRH
same,LOGEC50 for cAMP production,sbPAC1A; [5],-8.54 ± 0.18 M
Pituitary Adenylate Cyclase-Activating Polypeptide [PACAP],responsiveness of Hek293 cells transfected with pcDNA3 without insert,[3],responsive
same,binding preference of PAC1,PAC1,preferentially binds PACAP
Vasoactive Intestinal Peptide [VIP],responsiveness of Hek293 cells transfected with pcDNA3 without insert,[3],responsive
same,LOGEC50 for maximal cAMP production,sbPAC1B; [5],-6.57 ± 0.14 M
same,stimulation of cAMP compared with PACAP27 and PACAP38,"sbPAC1B; two way Anova, Holm-Sidak, transfected Cos7 cells, P < 0.001",significantly lower than PACAP27 and PACAP38 (P < 0.001)
same,effect on ion and water absorption by the intestine,intestine,involved in ion and water absorption by the intestine
same,effect on fish GH secretion by pituitary cells,pituitary cells,little or no effect on GH release
same,effect on gastric and pancreatic secretion,[4],stimulates gastric and pancreatic secretion
same,potency for sbPAC1A compared to sbPAC1B,"sbPAC1A; LOGEC50 comparison of sbPAC1A vs sbPAC1B, P < 0.05",significantly more potent for sbPAC1A
same,LOGEC50 for cAMP production,sbPAC1A; [5],-7.23 ± 0.20 M
same,stimulation of cAMP production compared with PACAP peptides,"sbPAC1A; two way Anova, Holm-Sidak, transfected Cos7 cells, P < 0.05",significantly lower (P < 0.05) than for PACAP peptides
secretin [SCT],increase above the basal concentration of cAMP production,"sbPAC1B; human SCT, Cos7 cells transformed with sbPAC1B, 30 minutes, 37°C, 1 mM IBMX, data not shown",negligible increase
same,increase above the basal concentration of cAMP production,"sbPAC1A; human SCT, Cos7 cells transformed with sbPAC1A, 30 minutes, 37°C, 1 mM IBMX, data not shown",negligible increase

# From publication PMC2245808, “Persistence of duplicated PAC1 receptors in the teleost, Sparus auratus” (BMC Evolutionary Biology, 2007)
